Results taken from PMC3527104 (Bioorganic & medicinal chemistry, 2012).

Key:
α7-nAChRs [1] = target: T1, α7-nAChRs (Mus musculus, UniProt P49582); details: CD1 mice, i.v.; frontal cortex, thalamus, striatum, hippocampus; post-injection
α7-nAChRs [2] = target: T1, α7-nAChRs; assay: blocking dissection study with PHA543613 in mice; details: PHA543613 0.5 mg/kg s.c., 15 min before tracer; 90 min after tracer

T1 sequence (P49582 23-502): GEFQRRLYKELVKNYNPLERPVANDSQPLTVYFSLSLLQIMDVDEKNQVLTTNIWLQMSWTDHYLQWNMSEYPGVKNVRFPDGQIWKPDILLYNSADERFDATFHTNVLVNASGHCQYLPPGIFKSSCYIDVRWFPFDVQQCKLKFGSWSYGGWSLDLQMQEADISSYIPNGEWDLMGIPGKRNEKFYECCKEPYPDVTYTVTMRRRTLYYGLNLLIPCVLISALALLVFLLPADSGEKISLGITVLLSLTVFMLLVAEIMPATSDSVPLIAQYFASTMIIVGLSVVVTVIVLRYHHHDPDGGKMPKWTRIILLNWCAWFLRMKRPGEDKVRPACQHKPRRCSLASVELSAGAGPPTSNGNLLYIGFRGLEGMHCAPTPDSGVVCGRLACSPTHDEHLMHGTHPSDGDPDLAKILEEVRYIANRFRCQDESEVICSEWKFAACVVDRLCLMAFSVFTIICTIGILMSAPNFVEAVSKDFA

| blockade of [^11C]rac-1 binding in the cerebellum (α7-nAChRs [2]) | inhibition of [^11C]rac-1 binding in hippocampus and frontal cortex (α7-nAChRs [2]) | Structure (SMILES) | time of peak radioactivity accumulation (α7-nAChRs [1]) [min] |
| --- | --- | --- | --- |
|  |  | [11CH3]N1CC2CN(c3ccc(-c4ccc5[nH]ccc5c4)nc3)CC21 (racemic) [[^11C]rac-1, 5-(5-(6-[^11C]methyl-3,6-diazabicyclo[3.2.0]heptan-3-yl)pyridin-2-yl)-1H-indole] | 30 |
| minimal | significantly inhibited | O=C(N[C@H]1CN2CCC1CC2)c1cc2ccoc2cn1 [PHA543613] |  |
